Results on 50 compounds are retold here after patent US10889573B2, “Anthelmintic quinoline-3-carboxamide derivatives” (Bayer Animal Health GMBH, priority 2016, dated 2021).

Each structure is given as a SMILES string.

Test system in one series: not listed separately
Put plainly: log P by HPLC on reversed phase columns (Method L0).
Details: not given
What is called chromatographic logP is lipophilicity estimated from chromatographic retention. A high value points to a more lipophilic compound. `CCOC(=O)CN(C)c1c(C(=O)N[C@H]2CCOc3ccccc32)cnc2c(-c3cc(Cl)cc(Cl)c3)cccc12` [Example 137, ethyl N-{8-(3,5-dichlorophenyl)-3-[(4S)-3,4-dihydro-2H-chromen-4-ylcarbamoyl]quinolin-4-yl}-N-methylglycinate] registered a chromatographic logP of 4.8.

Compound `O=C(N[C@H]1CCOc2ccccc21)c1cnc2c(-c3cc(Cl)cc(Cl)c3)cccc2c1-n1nccn1` [Example 189, 8-(3,5-dichlorophenyl)-N-[(4S)-3,4-dihydro-2H-chromen-4-yl]-4-(2H-1,2,3-triazol-2-yl)quinoline-3-carboxamide] returned a chromatographic logP of 5. Still for that read-out and setting: under `O=C(N[C@H]1CCOc2ccccc21)c1cnc2c(-c3cc(Cl)cc(Cl)c3)cccc2c1-n1ccnn1` [Example 188, 8-(3,5-dichlorophenyl)-N-[(4S)-3,4-dihydro-2H-chromen-4-yl]-4-(1H-1,2,3-triazol-1-yl)quinoline-3-carboxamide] stands 4.5.

The same series, now with this note: HPLC on reversed phase columns, Method L0.
On to `NCCNc1c(C(=O)N[C@H]2CCOc3ccccc32)cnc2c(-c3cc(Cl)cc(Cl)c3)cccc12` [Example 185], for which the “logP (Method L0)” value is 2. Consider `CN(C)C(=O)CCNc1c(C(=O)N[C@H]2CCc3ccccc32)cnc2c(-c3cc(Cl)cc(Cl)c3)cccc12` [Example 122], for which the “logP (Method L0)[a]” value was found to be 2. Consider `CC[S+]([O-])c1c(C(=O)N[C@H]2CCOc3ccccc32)cnc2c(-c3cccc(Cl)c3Cl)cccc12` (stereo partly drawn) [Example 368], for which the “logP (Method L0)^[a]” value is on record as 3.76. For `O=C(N[C@H]1CCc2ccccc21)c1cnc2c(-c3cc(Cl)cc(Cl)c3)cccc2c1NCCn1cccn1` [Example 125], the “logP (Method L0)[a]” value is 2.1. For `CON(C)c1c(C(=O)N[C@H]2CCOc3ccccc32)cnc2c(-c3cc(Cl)cc(Cl)c3)cccc12` [Example 250], the “logP (Method L0)” value was 4.87.

`O=C(N[C@H]1CCc2ccccc21)c1cnc2c(-c3cc(Cl)cc(Cl)c3)cccc2c1NCCN1CCCC1` [Example 96]: the “logP (Method L0)[a]” value is listed as 1.4. With `CON(C)c1c(C(=O)N[C@H]2CCOc3ccccc32)cnc2c(-c3cccc(Cl)c3Cl)cccc12` [Example 249], the “logP (Method L0)” value turned out to be 3.99. `C[C@H](Nc1c(C(=O)N[C@H]2CCc3ccccc32)cnc2c(-c3cc(Cl)cc(Cl)c3)cccc12)C(N)=O` [Example 127]: the “logP (Method L0)[a]” value was 1.9.

For the compound `CN(c1c(C(=O)N[C@H]2CCOc3ccccc32)cnc2c(-c3ccccc3Cl)cccc12)C1CC1` [Example 252], the “logP (Method L0)” value came out at 2.23. Take `Cn1c(=O)n(C)n(-c2c(C(=O)N[C@H]3CCOc4ccccc43)cnc3c(-c4cccc(Cl)c4Cl)cccc23)c1=O` [Example 321]: the “logP (Method L0)^[a]” value is 3.37.

Consider `O=C(N[C@H]1CCc2ccccc21)c1cnc2c(-c3cc(Cl)cc(Cl)c3)cccc2c1N1CC[C@@H](O)C1` [Example 101], for which the “logP (Method L0)[a]” value is on record as 1.8. `O=C(N[C@H]1CCOc2ccccc21)c1cnc2c(-c3cc(F)cc(F)c3F)c(Cl)ccc2c1N1CCOCC1` [Example 576]: the “logP (Method L0)^[a]” value turned out to be 3.90. Same read-out and setting: under `CCSc1c(C(=O)N[C@H]2CCOc3ccccc32)cnc2c(-c3cc(Cl)cc(Cl)c3)cccc12` [Example 367] stands 5.48. Turning to `CON(C)c1c(C(=O)N[C@H]2CCOc3ccccc32)cnc2c(-c3ccccc3Cl)cccc12` [Example 248], the “logP (Method L0)” value is recorded as 3.41. Take `CN(C)c1c(C(=O)N[C@H]2CCOc3cc(F)ccc32)cnc2c(-c3cc(Cl)cc(Cl)c3)cccc12` [Example 152]: the “logP (Method L0)[a]” value stood at 3. On the same count and under the same terms, under `O=C(N[C@H]1CCc2ccccc21)c1cnc2c(-c3cc(Cl)cc(Cl)c3)cccc2c1NCCO` [Example 100] stands 1.9.

As to `CC(C)(C)OC(=O)CNc1c(C(=O)N[C@H]2CCOc3ccccc32)cnc2c(-c3cc(Cl)cc(Cl)c3)cccc12` [Example 182], the “logP (Method L0)” value is 3.3. With `CCS(=O)(=O)c1c(C(=O)N[C@H]2CCOc3ccccc32)cnc2c(-c3cc(Cl)cc(Cl)c3)cccc12` [Example 371], the “logP (Method L0)^[a]” value was found to be 4.54. Take `Nc1c(C(=O)N[C@H]2CCOc3ccccc32)cnc2c(-c3cc(Cl)cc(Cl)c3)cccc12` [Example 58]: the “logP (Method L0)[a]” value was 2.11. Still for that read-out and setting: under `CCNc1c(C(=O)N[C@H]2CCOc3ccccc32)cnc2c(-c3cc(Cl)cc(Cl)c3)cccc12` [Example 153] stands 2.1; under `COC[C@@H]1CCCN1c1c(C(=O)N[C@H]2CCc3ccccc32)cnc2c(-c3cc(Cl)cc(Cl)c3)cccc12` [Example 91], 2.9.

With `O=C(N[C@H]1CCOc2ccccc21)c1cnc2c(-c3cc(Cl)cc(Cl)c3)cccc2c1C1CC1` [Example 358], the “logP (Method L0)^[a]” value is 4.9.

In the case of `Cc1nc2c(-c3cccc(Cl)c3Cl)cccc2c(N(C)C)c1C(=O)N[C@H]1CCOc2ccccc21` [Example 523], the “logP (Method L0)^[a]” value amounted to 2.11.

Consider `O=C(N[C@H]1CCOc2ccccc21)c1cnc2c(-c3cc(Cl)cc(Cl)c3)cccc2c1Nc1ccncc1` [Example 136], for which the “logP (Method L0)[a]” value came to 2.1. Same read-out and setting: under `CN(C)CCNc1c(C(=O)N[C@H]2CCc3ccccc32)cnc2c(-c3cc(Cl)cc(Cl)c3)cccc12` [Example 88] stands 1.3; under `NC(=O)CNc1c(C(=O)N[C@H]2CCc3ccccc32)cnc2c(-c3cc(Cl)cc(Cl)c3)cccc12` [Example 129], 1.8.

On to `CN(c1c(C(=O)N[C@H]2CCOc3ccccc32)cnc2c(-c3cc(Cl)cc(Cl)c3)cccc12)C1CC1` [Example 254], for which the “logP (Method L0)” value is reported as 3.81. For the compound `CC(=O)N1CCN(c2c(C(=O)N[C@H]3CCc4ccccc43)cnc3c(-c4cc(Cl)cc(Cl)c4)cccc23)CC1` [Example 116], the “logP (Method L0)[a]” value is 3.4.

Take `COC[C@H]1CCCN1c1c(C(=O)N[C@H]2CCc3ccccc32)cnc2c(-c3cc(Cl)cc(Cl)c3)cccc12` [Example 92]: the “logP (Method L0)[a]” value was 2.9.

As for `O=C(N[C@H]1CCOc2ccccc21)c1cnc2c(-c3cc(Cl)cc(Cl)c3)cccc2c1N1CC2COCC(C1)O2` [Example 301], the “logP (Method L0)” value turned out to be 3.3.

Regarding `CN(CC1CC1)c1c(C(=O)N[C@H]2CCc3ccccc32)cnc2c(-c3cc(Cl)cc(Cl)c3)cccc12` [Example 106], the “logP (Method L0)[a]” value is listed as 3.7. For the compound `CN(CCO)c1c(C(=O)N[C@H]2CCOc3ccccc32)cnc2c(-c3cc(Cl)cc(Cl)c3)cccc12` [Example 138], the “logP (Method L0)[a]” value is reported as 2.7. For `CCCNc1c(C(=O)N[C@H]2CCOc3ccccc32)cnc2c(-c3cc(Cl)cc(Cl)c3)cccc12` [Example 184], the “logP (Method L0)” value was 3. On the same count and under the same terms, under `CN(CC(=O)OC(C)(C)C)c1c(C(=O)N[C@H]2CCOc3ccccc32)cnc2c(-c3cc(Cl)cc(Cl)c3)cccc12` [Example 183] stands 6. As to `CNc1c(C(=O)N[C@H]2CCOc3ccccc32)cnc2c(-c3cc(F)c(OC(F)F)c(F)c3)c(F)ccc12` [Example 547], the “logP (Method L0)^[a]” value stood at 1.81. As for `COC(=O)CNc1c(C(=O)N[C@H]2CCc3ccccc32)cnc2c(-c3cc(Cl)cc(Cl)c3)cccc12` [Example 128], the “logP (Method L0)[a]” value came to 2.1. On the same count and under the same terms, under `COCCNc1c(C(=O)N[C@H]2CCc3ccccc32)cnc2c(-c3cc(Cl)cc(Cl)c3)cccc12` [Example 89] stands 2.2. Take `CC[S+]([O-])c1c(C(=O)N[C@H]2CCOc3ccccc32)cnc2c(-c3cc(Cl)cc(Cl)c3)cccc12` (stereo partly drawn) [Example 370]: the “logP (Method L0)^[a]” value came to 4.44. Turning to `O=C(N[C@H]1CCOc2ccccc21)c1cnc2c(-c3cc(Cl)cc(Cl)c3)cccc2c1N1CC2CC(C1)O2` [Example 300], the “logP (Method L0)” value was 2.6. For `CN(CCN1CCCC1=O)c1c(C(=O)N[C@H]2CCOc3ccccc32)cnc2c(-c3cc(Cl)cc(Cl)c3)cccc12` [Example 328], the “logP (Method L0)^[a]” value is given as 3.3. Turning to `O=C(N[C@H]1CCc2ccccc21)c1cnc2c(-c3cc(Cl)cc(Cl)c3)cccc2c1NCc1ccccn1` [Example 99-1], the “logP (Method L0)[a]” value came to 2.2.

The same series, now with this note: acidic range, 0.1% formic acid in water / acetonitrile.
Regarding `CCOC(=O)c1cnc2c(-c3cc(Cl)cc(Cl)c3Cl)c(F)ccc2c1N(C)C` [Example 1U-8], the “logP (Method L0)[a]” value is given as 4.57.

In the case of `CCOC(=O)c1cnc2c(-c3cccc(Cl)c3Cl)cccc2c1N1CCOCC1` [Example 1U-15], the “logP (Method L0)[a]” value was 3.90. On the same count and under the same terms, under `CCOC(=O)c1cnc2c(-c3cc(F)cc(F)c3F)cccc2c1N(C)C` [Example 1U-5] stands 2.40; under `CCOC(=O)c1cnc2c(-c3cc(Cl)cc(Cl)c3)cccc2c1N1CCOCC1` [Example 1U-13], 5.19; under `O=C(O)c1cnc2c(-c3cccc(Cl)c3Cl)cccc2c1N1CCOCC1` [Example 1W-15], 1.86.

For `CCOC(=O)c1cnc2c(-c3cc(F)cc(F)c3F)c(F)ccc2c1N(C)C` [Example 1U-11], the “logP (Method L0)[a]” value worked out at 2.40.

In another series the test system is Haemonchus contortus.
Assay: not given
The settings on record: 120 h, read-out: activity (larval mortality).
The mortality is the percentage killed. With `CCOC(=O)CN(C)c1c(C(=O)N[C@H]2CCOc3ccccc32)cnc2c(-c3cc(Cl)cc(Cl)c3)cccc12` [Example 137, ethyl N-{8-(3,5-dichlorophenyl)-3-[(4S)-3,4-dihydro-2H-chromen-4-ylcarbamoyl]quinolin-4-yl}-N-methylglycinate], the mortality at 20 ppm is 80%.

For the next series, the target named is C. elegans Slo-1a (Caenorhabditis elegans, UniProt Q95V25).
C. elegans Slo-1a, sequence (Q95V25 whole entry): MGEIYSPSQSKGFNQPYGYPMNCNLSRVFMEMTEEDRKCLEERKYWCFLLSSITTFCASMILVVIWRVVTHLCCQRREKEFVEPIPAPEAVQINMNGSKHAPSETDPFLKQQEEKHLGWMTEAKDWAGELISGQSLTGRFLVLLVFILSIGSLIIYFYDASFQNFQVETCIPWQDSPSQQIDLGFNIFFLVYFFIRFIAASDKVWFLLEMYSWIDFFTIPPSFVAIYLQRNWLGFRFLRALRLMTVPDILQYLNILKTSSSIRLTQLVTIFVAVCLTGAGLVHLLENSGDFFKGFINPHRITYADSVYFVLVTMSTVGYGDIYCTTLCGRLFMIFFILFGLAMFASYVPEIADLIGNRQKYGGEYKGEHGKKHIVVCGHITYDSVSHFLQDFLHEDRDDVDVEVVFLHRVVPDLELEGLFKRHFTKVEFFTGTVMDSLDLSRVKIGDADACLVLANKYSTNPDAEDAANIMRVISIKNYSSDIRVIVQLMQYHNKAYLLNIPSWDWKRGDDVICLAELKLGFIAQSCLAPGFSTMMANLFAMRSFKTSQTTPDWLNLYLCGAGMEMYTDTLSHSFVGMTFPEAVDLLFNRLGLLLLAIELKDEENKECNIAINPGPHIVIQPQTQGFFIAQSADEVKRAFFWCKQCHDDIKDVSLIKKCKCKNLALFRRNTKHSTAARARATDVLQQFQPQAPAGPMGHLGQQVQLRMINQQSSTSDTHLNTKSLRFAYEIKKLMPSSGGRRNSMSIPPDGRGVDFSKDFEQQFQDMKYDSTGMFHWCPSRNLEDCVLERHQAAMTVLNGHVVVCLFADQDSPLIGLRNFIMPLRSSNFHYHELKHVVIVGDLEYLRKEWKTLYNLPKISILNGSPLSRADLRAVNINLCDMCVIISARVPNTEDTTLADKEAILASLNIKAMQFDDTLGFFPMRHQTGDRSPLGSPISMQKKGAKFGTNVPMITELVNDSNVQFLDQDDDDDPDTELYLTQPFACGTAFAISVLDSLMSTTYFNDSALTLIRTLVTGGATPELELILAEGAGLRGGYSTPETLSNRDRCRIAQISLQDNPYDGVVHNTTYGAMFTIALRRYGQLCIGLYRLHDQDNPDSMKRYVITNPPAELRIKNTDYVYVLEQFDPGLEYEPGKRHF
Assay: not given
The settings on record: pE50 (negative decadic logarithm of EC50), CHO cells expressing C. elegans Slo-1a, voltage sensitive dye.
A word on the EC50: it is the concentration that produces a half-maximal response. Regarding `CCOC(=O)CN(C)c1c(C(=O)N[C@H]2CCOc3ccccc32)cnc2c(-c3cc(Cl)cc(Cl)c3)cccc12` [Example 137, ethyl N-{8-(3,5-dichlorophenyl)-3-[(4S)-3,4-dihydro-2H-chromen-4-ylcarbamoyl]quinolin-4-yl}-N-methylglycinate], the EC50 is < 3.16 nM. Same read-out and setting: under `O=C(N[C@H]1CCOc2ccccc21)c1cnc2c(-c3cc(Cl)cc(Cl)c3)cccc2c1-n1nccn1` [Example 189, 8-(3,5-dichlorophenyl)-N-[(4S)-3,4-dihydro-2H-chromen-4-yl]-4-(2H-1,2,3-triazol-2-yl)quinoline-3-carboxamide] stands < 3.16 nM; under `O=C(N[C@H]1CCOc2ccccc21)c1cnc2c(-c3cc(Cl)cc(Cl)c3)cccc2c1-n1ccnn1` [Example 188, 8-(3,5-dichlorophenyl)-N-[(4S)-3,4-dihydro-2H-chromen-4-yl]-4-(1H-1,2,3-triazol-1-yl)quinoline-3-carboxamide], 3.16 to 31.6 nM.

For a further series, the system named is Nippostrongylus brasiliensis. Description: In vitro assay 2: Nippostrongylus brasiliensis (NIPOBR), acetylcholine esterase readout. The settings on record: 1 μg/ml, read-out: activity (reduction of AChE compared to negative control). The gist of the method:
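Readout was acetylcholine esterase activity released into the medium, compared with negative control, after exposing adult worms to compounds at final 10 ppm (10 μg/ml) or 1 ppm (1 μg/ml). Worms were first washed in antibiotic/amphotericin B-containing saline; compounds were dissolved in DMSO.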
For `CCOC(=O)CN(C)c1c(C(=O)N[C@H]2CCOc3ccccc32)cnc2c(-c3cc(Cl)cc(Cl)c3)cccc12` [Example 137, ethyl N-{8-(3,5-dichlorophenyl)-3-[(4S)-3,4-dihydro-2H-chromen-4-ylcarbamoyl]quinolin-4-yl}-N-methylglycinate], the inhibition at 1 µg/mL is > 80%. Take `O=C(N[C@H]1CCOc2ccccc21)c1cnc2c(-c3cc(Cl)cc(Cl)c3)cccc2c1-n1nccn1` [Example 189, 8-(3,5-dichlorophenyl)-N-[(4S)-3,4-dihydro-2H-chromen-4-yl]-4-(2H-1,2,3-triazol-2-yl)quinoline-3-carboxamide]: the inhibition at 1 µg/mL is > 80%.

The same series, now with this note: 10 μg/ml, read-out: activity (reduction of AChE compared to negative control).
As for `CCOC(=O)CN(C)c1c(C(=O)N[C@H]2CCOc3ccccc32)cnc2c(-c3cc(Cl)cc(Cl)c3)cccc12` [Example 137, ethyl N-{8-(3,5-dichlorophenyl)-3-[(4S)-3,4-dihydro-2H-chromen-4-ylcarbamoyl]quinolin-4-yl}-N-methylglycinate], the inhibition at 10 µg/mL was > 80%.

For another series, the system named is Dirofilaria immitis microfilariae. Description: In vitro assay 3: Dirofilaria immitis microfilariae (DIROIM L1), motility. The settings on record: 72 h, read-out: EC50 (reduction of motility), 72 h incubation.
`CCOC(=O)CN(C)c1c(C(=O)N[C@H]2CCOc3ccccc32)cnc2c(-c3cc(Cl)cc(Cl)c3)cccc12` [Example 137, ethyl N-{8-(3,5-dichlorophenyl)-3-[(4S)-3,4-dihydro-2H-chromen-4-ylcarbamoyl]quinolin-4-yl}-N-methylglycinate]: the EC50 was < 1 µg/mL. Take `O=C(N[C@H]1CCOc2ccccc21)c1cnc2c(-c3cc(Cl)cc(Cl)c3)cccc2c1-n1nccn1` [Example 189, 8-(3,5-dichlorophenyl)-N-[(4S)-3,4-dihydro-2H-chromen-4-yl]-4-(2H-1,2,3-triazol-2-yl)quinoline-3-carboxamide]: the EC50 was < 0.1 µg/mL. Still for that read-out and setting: under `O=C(N[C@H]1CCOc2ccccc21)c1cnc2c(-c3cc(Cl)cc(Cl)c3)cccc2c1-n1ccnn1` [Example 188, 8-(3,5-dichlorophenyl)-N-[(4S)-3,4-dihydro-2H-chromen-4-yl]-4-(1H-1,2,3-triazol-1-yl)quinoline-3-carboxamide] stands < 0.1 µg/mL.
